{"source": "patent US9919058B2", "about": "“Polyketal particles including a CpG oligodeoxynucleotide for the treatment of lung cancer” (THE UNITED STATES OF AMERICA, as represented by the …, priority 2014, dated 2018)", "key": {"Rat": {"test_system": "Rat", "conditions": "in vivo, po; cited from earlier work"}, "large established tumor": {"test_system": "large established tumor", "conditions": "3M-052 co-delivered with CpG ODN into the tumor site; tumor size over 500 mm(3); cited from earlier work"}, "advanced NSCLC": {"test_system": "advanced NSCLC", "conditions": "cited from earlier work"}, "[1]": {"test_system": "Lewis lung carcinoma (LLC1) cells", "protocol": "Treatment Protocols and Tumor Cell Implantation: C57BL/6, TLR9 KO and Rag1 KO mice were obtained from the National Cancer Institute (Frederick, Md.) and studied at 5-6 wk of age. […] On the day of inoculation, cultured cells were trypsinized, washed and suspended in 0.9% saline.\nOne week later, free ODN or ODN-NP were administered either systemically (i.p.) or locally (i.t.). Instillation was achieved via orotracheal intubation using a 20 gauge 1″ catheter (TERUMO, Somerset, N.J.) under anesthesia. Survival curves were generated from 4-6 mice per group and all results derived by combining data from 2-4 independent experiments. All animals were monitored 3×/wk and moribund mice euthanized as per Institutional Animal Care and Use Committee protocol.\nStatistical Analysis: Statistical analyses were performed using MedCalc, version 13.0 (MedCalc Software, Mariakerke, Belgium). Differences in survival were determined using the log rank test of Kaplan-Meier. Differences between groups were assessed using a one-way ANOVA followed by Student-Newman-Keuls post-hoc test. […] All values are expressed as mean±SE."}, "[2]": {"conditions": "mouse, in vivo", "method": "Biodistribution of CpG ODN. LLC were implanted as described in FIG. 1. […] Tissue samples were stained to identify macrophages (red F4/80^+), DC (red CD205^+) or CpG (green) and analyzed by confocal microscopy.\nImmunohistochemistry and Immunofluorescent Analysis: Tissue sections were deparaffinized with xylene and rehydrated with graded ethanol. Endogenous peroxidase activity was blocked by incubation with 0.3% H2O2 in methanol for 30 min followed by Protein Block (Dako, Carpinteria, Calif.). […] Isotype matched negative controls were included to insure specificity.\nFor immunohistochemistry, stained sections were incubated with HRP-conjugated anti-rat or rabbit IgG (simple stain mouse Max Po; Nichirei, Tokyo, Japan) plus 3-amino-9-ethyl carbazole (AEC) substrate for color development (Nichirei). The sections were counterstained with Mayer's hematoxylin (Dako) and images were obtained using an IX50 inverted microscope equipped with digital imaging system (Olympus, Center Valley, Pa.). […] Cell nuclei were visualized with DAPI (Vector). […] Fluorescent images were acquired with a laser-scanning confocal microscope (LSM 510; Zeiss, Thronwood, N.Y.), equipped with a 63x/1.4NA oil objective."}, "[3]": {"conditions": "in vivo; cited from earlier work"}, "Immune Cells": {"test_system": "Immune Cells", "experiment": "BAL cellularity and IL-12 after i.t. delivery to normal mice", "type": "in vivo", "conditions": "50 μg i.t., BAL 2 days later", "protocol": "FIGS. 4A-4B. Activity of CpG-NP (aggregates provided microprticles “MP’) in vivo. 50 μg of CpG ODN (free or adsorbed onto NP) was administered i.t. to normal mice. BAL was collected and analyzed for (4A) cellularity and (4B) IL-12 levels 2 days later.\nTissue Collection and Evaluation of Tumor Development: Bronchoalveolar lavage (BAL) fluid was obtained by tracheal cannulation of anesthetized mice. Cell differentials were performed on cytocentrifuged BAL preparations after fixation and staining with Diff-Quick (Dade Behring, Newark, Del.).\nIL-12 levels in BAL and serum were determined by ELISA. Lungs were inflated and fixed by instilling 1 mL of 10% neutral-buffered formalin or periodate lysine paraformaldehyde (PLP) fixative (Wako Chemicals USA, Inc. Richmond, Va.) at 20 cm H2O. Fixed tissue was embedded in paraffin, sectioned, and stained with hematoxylin and eosin for histopathological assessment. Tumor area was evaluated in mid-line sections and quantified using Image J software ver.1.48 (National Institute of Health, Bethesda, Md.).\nELISA: Cytokine levels in BAL, serum, and culture supernatants were measured by ELISA as previously described (Klinman et al., PNAS 1996; 93:2879-2883). […] Samples were added and bound cytokine detected by the addition of biotin-labeled secondary Ab, followed by phosphatase-conjugated avidin and a phosphatase-specific colorimetric substrate. […]"}, "[4]": {"test_system": "Spleen cells from WT or TLR9 KO mice", "experiment": "In vitro stimulation of spleen cells (CCK-8 proliferation; IL-6/IL-12 ELISA)", "type": "cell-based", "protocol": "FIGS. 2A-2C. In vitro activity of CpG-NP (aggregates provided microprticles “MP’). Spleen cells from WT or TLR9 KO mice were cultured with 1 μM of free or NP adsorbed CpG ODN or 1 μg/mL of R837 (TLR7 ligand). 2A) Cell proliferation after 72 hr. 2B, 2C) IL-12 and IL-6 production after 24 hr.\nIn Vitro Cell Proliferation Assay: Single spleen cell suspensions were prepared. 5×10^4 cells/well were cultured in 96-well flat bottomed microtiter plates in complete RPMI 1640 medium supplemented with 10% fetal calf serum, 100 U/mL penicillin, […], […], 1.0 mmol/L sodium pyruvate, NEAA, and 0.0035% 2-ME. The cells were stimulated free ODN, ODN-NP, or R837 (TLR7 agonist) for 72 hr. Cell proliferation was assessed using the CCK-8 assay as per manufacturer's recommendation (Dojindo molecular technologies, Inc. Rockville, Md.).\nELISA: Cytokine levels in BAL, serum, and culture supernatants were measured by ELISA as previously described (Klinman et al., PNAS 1996; 93:2879-2883). Briefly, paired IL-6 and IL-12-specific mAbs were purchased from BD Pharmingen. Ninety-six-well Immulon H2B plates (Thermo LabSystems, Beverly, Mass.) were coated with capture cytokine-specific Abs and then blocked with PBS/1% BSA. Samples were added and bound cytokine detected by the addition of biotin-labeled secondary Ab, followed by phosphatase-conjugated avidin and a phosphatase-specific colorimetric substrate. Standard curves were generated using recombinant cytokines purchased from R&D Systems (Minneapolis, Minn.)."}, "Lewis lung cancer": {"test_system": "Lewis lung cancer", "conditions": "CpG ODN in combination with chemotherapy; cited from earlier work"}}, "note": "Like-named read-outs stand apart in the source and are kept apart here."}
{"compound": "OCC1CCC(CO)CC1", "note": "(centres unmarked) [1,4-cyclohexanedimethanol]", "values": [{"measurement": "LD50", "setting": "Rat", "result": "3,200 mg/kg"}]}
{"compound": "CCCCCCCCCCCCCCCCCC(=O)NCCCCOn1c(CCCC)nc2c(N)nc3ccccc3c21", "note": "[3M-052, N-(4-{[4-amino-2-butyl-1H-imidazo[4,5-c]quinolin-1-yl]oxy}butyl) octadecanamide]", "values": [{"measurement": "effect on established tumor", "setting": "large established tumor", "result": "eliminated the large established tumor"}]}
{"compound": "GCTAGACGTTAGCGT [CpG ODN]", "values": [{"measurement": "objective response rate", "setting": "advanced NSCLC; patients who received CpG ODN, chemotherapy alone 19-23%", "result": "28-30%"}, {"measurement": "survival benefit in phase 3 trials", "setting": "advanced NSCLC; patients with NSCLC, phase 3", "result": "no survival benefit was observed"}, {"measurement": "median survival time", "setting": "[1]; 50 μg i.t. weekly for one month from day 7, C57BL/6, untreated 22 days", "result": 38, "unit": "days"}, {"measurement": "HR (survival vs No Rx)", "setting": "[1]; dose of ODN 10 μg", "result": 0.33}, {"measurement": "long term survival", "setting": "[1]; dose of ODN 10 μg weekly for one month", "result": "< 40", "unit": "%"}, {"measurement": "long term survival", "setting": "[1]; dose of ODN 50 μg weekly for one month", "result": "> 80", "unit": "%"}, {"measurement": "toxicity", "setting": "[1]; dose of ODN 100 μg", "result": "evidence of toxicity (pulmonary inflammation and weight loss)"}, {"measurement": "HR (survival vs No Rx)", "setting": "[1]; intra-tracheal (i.t.) delivery, 50 μg", "result": 0.28}, {"measurement": "tumors on re-challenge of survivors with LLC", "setting": "[1]; survivors of therapy re-challenged", "result": "no tumors arose"}, {"measurement": "HR (survival vs No Rx)", "setting": "[1]; systemic (i.p.) delivery", "result": 0.55}, {"measurement": "effect on survival", "setting": "[1]; systemic (i.p.) delivery", "result": "modest but statistically insignificant survival benefit"}, {"measurement": "clearance from the lungs", "setting": "[2]", "result": "rapidly cleared from the lungs"}, {"measurement": "localisation in lung", "setting": "[2]", "result": "detected throughout the mucosal surface of the bronchial tree"}, {"measurement": "localisation/persistence in lung and tumor", "setting": "[2]", "result": "little of this material remained in the bronchi or could be detected in the tumor"}, {"measurement": "mean t1/2", "setting": "[3]", "result": "≈ 12 h"}, {"measurement": "median tmax", "setting": "[3]", "result": 2, "unit": "h"}, {"measurement": "pulmonary IL-12 levels", "setting": "Immune Cells", "result": "significant increase in pulmonary IL-12 levels"}, {"measurement": "rise in BAL cellularity vs saline", "setting": "Immune Cells; normal mice", "result": "≈ 25%"}, {"measurement": "response of cells from TLR9 KO mice", "setting": "[4]; TLR9 KO spleen cells", "result": "failed to respond"}, {"measurement": "IL-6 and IL-12 secretion", "setting": "[4]; WT spleen cells, 1 μM, 24 hr", "result": "induced WT cells to secrete IL-6 and IL-12"}, {"measurement": "cell proliferation", "setting": "[4]; WT spleen cells, 1 μM, 3 days (72 hr)", "result": "proliferate over 3 days"}, {"measurement": "relative effectiveness of free CpG vs CpG-NP", "setting": "[4]; WT spleen cells, 24 hr vs 3 days of culture", "result": "more effective at the earlier time point"}, {"measurement": "effect on survival", "setting": "Lewis lung cancer", "result": "significantly prolonged survival"}]}
{"compound": "GCTAGAGCTTAGCGT [control ODN, reference compound]", "values": [{"measurement": "effect on survival", "setting": "[1]; i.t. delivery", "result": "no effect"}]}
